Common to all, as to assay: NCI-60 cell line screen, 48 h
Assay [1] concerns A498 renal.
Assay [2] relates to CAKI-1 renal.
For assay [3], the system named is EKVX NSCLC.
Assay [4] has as its system MALME-3M melanoma.
Assay [5] concerns MCF7 breast.
Assay [6] concerns MDA-MB-435.
In assay [7] the test system is MOLT-4 leukemia.
The test system of assay [8] is OVCAR-3 ovarian.
Assay [9] has as its system SK-MEL-28 melanoma.
Assay [10] has as its system SK-OV-3 ovarian.

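96-well plates; 48 h exposure; 5 concentrations. Endpoints by linear interpolation between flanking doses. Not reached: highest tested concentration assigned. TGI is the concentration that stops growth completely.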

As for `CC(C)(C)NC(=O)/C(=C\Sc1ccccc1)c1ccccc1`, the TGI in assay [1], in assay [2], in assay [3], in assay [4], in [5] and in [6] was > 100 µM throughout. Further, the TGI in assay [7], in [8], in assay [9] and in [10] was > 100 µM each time.

Regarding `COC(=O)c1c(C)cccc1C1CN=NC12Cc1cc(C)cc(C)c1C2=O` (stereo not given), the TGI in assay [1] was 74.9 µM; in [2] it was > 100 µM; in assay [3], > 100 µM; in [4], > 100 µM; in assay [5], 29.1 µM; in assay [6], > 100 µM. The TGI in assay [7], in [8], in assay [9] and in assay [10] was > 100 µM in each case.

In the case of `COc1ccc(NC(C(N)=O)c2cc3cc(Br)ccc3nc2Cl)cc1` (stereo not given), the TGI was > 100 µM in assay [1]; > 100 µM in [2]; > 100 µM in assay [3]; > 100 µM in assay [4]; > 100 µM in [5]; 56.5 µM in assay [6]. Further, the TGI is 62.9 µM in [7], > 100 µM in assay [8], > 100 µM in [9] and > 100 µM in assay [10].

For `O=C(OC1CN2CCC1CC2)N(c1ccccc1)c1ccccc1` (stereo not given), the TGI was 78.5 µM in [1]; > 100 µM in assay [2]; > 100 µM in assay [3]; > 100 µM in [4]; > 100 µM in assay [5]; > 100 µM in assay [6]. Besides, the TGI in assay [7], in assay [8], in [9] and in assay [10] was > 100 µM in each case.

`O=[N+]([O-])c1cc(F)ccc1S(=O)(=O)c1ccccc1`: the TGI in assay [1], in [2], in assay [3], in assay [4], in [5] and in assay [6] was > 10 µM each time. Besides, the TGI in [7], in assay [8], in assay [9] and in [10] was > 10 µM in each case.

With `O=C(c1cccs1)N1CCCN(C(=O)c2cccs2)C1=S`, the TGI in [1], in assay [2], in assay [3], in assay [4], in [5] and in assay [6] was > 100 µM in each case. The TGI in [7], in assay [8], in [9] and in assay [10] was > 100 µM throughout.

Consider `COc1ccc2c(c1)NC1(CCN(CCCC(=O)c3ccc(F)cc3)CC1)N=N2`, for which the TGI in assay [1] is 76.7 µM; in assay [2], 90.6 µM; in [3] it was > 100 µM; in assay [4], 30.6 µM; in [5], 40.5 µM; in assay [6] it was 31.4 µM. Further, the TGI in assay [7] was 41.4 µM; in assay [8] it was 53.5 µM; in assay [9], 37 µM; in assay [10] it was > 100 µM.

For `Nn1c(=O)[nH]c2ncn(Cc3ccccc3)c2c1=O`, the TGI in assay [1], in assay [2], in assay [3], in [4], in [5] and in [6] was > 100 µM in each case. The TGI in assay [7], in [8], in assay [9] and in assay [10] was > 100 µM each time.

Consider `COC(=O)c1ccccc1/C=C1\Cc2ccc3c(c2C1=O)CCCC3`, for which the TGI in assay [1], in assay [2], in assay [3], in [4], in assay [5] and in assay [6] was > 100 µM throughout. Besides, the TGI in assay [7], in assay [8], in assay [9] and in [10] was > 100 µM in each case.

As to `c1ccc(Nc2nn3c(CCCCCCCCc4nnc5sc(Nc6ccccc6)nn45)nnc3s2)cc1`, the TGI in assay [1] was > 100 µM; in [2], > 100 µM; in [3], > 100 µM; in assay [4] it was > 100 µM; in assay [5], 85.7 µM; in [6], 84 µM. In addition, the TGI in [7] was 41.7 µM; in [8] it was > 100 µM; in assay [9], > 100 µM; in assay [10] it was > 100 µM.
